Ends that are not written are not given here.
T1: PDZØ9 (pWT SAP97 PDZ2 L391F/K392M) (Homo sapiens, UniProt Q12959, C378A/I342W/K392M/L391F)
T1 construct: constituting SAP97 residues 311–407 and the mutations I342W and C372A; His-tagged lipoyl protein domain (N, cleaved yes); made in house
T1 sequence (Q12959 311-407 I342W/C378A/L391F/K392M): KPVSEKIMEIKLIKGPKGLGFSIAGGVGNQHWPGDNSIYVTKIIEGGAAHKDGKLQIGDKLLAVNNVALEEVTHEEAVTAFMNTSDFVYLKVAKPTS

T2: pWT PDZ2 (pseudo wild type SAP97 PDZ2, I342W/C378A) (Homo sapiens, UniProt Q12959, C378A/I342W)
T2 construct: constituting SAP97 residues 311–407 and the mutations I342W and C372A; His-tagged lipoyl protein domain (N, cleaved yes); made in house
T2 sequence (Q12959 311-407 I342W/C378A): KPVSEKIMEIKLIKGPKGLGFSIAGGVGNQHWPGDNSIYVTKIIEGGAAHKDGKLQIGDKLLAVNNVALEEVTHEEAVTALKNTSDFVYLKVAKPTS

T3: pWT PDZ2 L391F (Homo sapiens, UniProt Q12959, C378A/I342W/L391F)
T3 construct: constituting SAP97 residues 311–407 and the mutations I342W and C372A; His-tagged lipoyl protein domain (N, cleaved yes); made in house
T3 sequence (Q12959 311-407 I342W/C378A/L391F): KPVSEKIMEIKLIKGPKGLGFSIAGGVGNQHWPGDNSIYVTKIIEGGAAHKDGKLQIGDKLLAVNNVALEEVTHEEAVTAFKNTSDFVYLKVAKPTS

T4: pWT PDZ2 K392M (Homo sapiens, UniProt Q12959, C378A/I342W/K392M)
T4 construct: constituting SAP97 residues 311–407 and the mutations I342W and C372A; His-tagged lipoyl protein domain (N, cleaved yes); made in house
T4 sequence (Q12959 311-407 I342W/C378A/K392M): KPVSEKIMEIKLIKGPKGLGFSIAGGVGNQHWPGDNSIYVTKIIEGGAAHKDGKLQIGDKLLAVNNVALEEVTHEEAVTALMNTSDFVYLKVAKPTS


How the values were obtained:
[1] = target: T1, PDZØ9 (pWT SAP97 PDZ2 L391F/K392M); assay: Stopped-flow binding kinetics, peptide with PDZØ9; conditions: for Kd: Kd = koff/kon, ± propagated standard error; for Kd / koff / kon: stopped-flow; for Kd / koff: pH 7.5, 10 °C; for koff: displacement of pre-formed complex (1 µM PDZ, 2 µM peptide) with 100 and 150 µM dansylated RRRETQV peptide; for koff / kon: value ± standard error; for kon: Trp342 fluorescence, 1 µM PDZ, peptide 2–40 µM, N-acetylated peptide, 50 mM potassium phosphate pH 7.5, 10 °C
Experimental: (§1) The basic experimental parameters determined were the rate constants of association (kon) and dissociation (koff) for each peptide and for all PDZ variants, respectively, in a procedure described in Fig. 2 for the interaction between PDZØ9 and the EKKHTLL peptide as an example.
(§2) Figure 2 Determination of the two rate constants kon and koff for PDZØ9 binding to the EKKHTLL peptide. kon and koff were determined in separate experiments using stopped-flow spectroscopy and monitoring the change in Trp fluorescence upon binding. (a) The experimental trace was obtained by averaging of three individual experiments in which 11 μM of the EKKHTLL peptide was mixed with 1 μM PDZØ9. The trace was fitted to a single exponential function to obtain the observed rate constant, kobs. […] (c) In a displacement reaction a pre-formed complex between PDZØ9 (1 μM) and the EKKHTLL peptide (2 μM) was mixed with a large excess of dansyl-labeled peptide corresponding to the C-terminal […] of HPV18 E6 (150 μM). […] At high concentrations of dansylated peptide, none of the dissociated EKKHTLL will re-bind, and fitting to a single exponential function returns a kobs value which is equal to the dissociation rate constant, koff, of the pre-formed complex.
(§3) All of the stopped-flow experiments conducted in order to measure the rate constants for the peptide/PDZ interactions, were performed on an SX-20 MV stopped-flow spectrometer (Applied Photophysics Leatherhead, UK) at 10 °C in 50 mM potassium phosphate buffer, pH 7.5. Fluorescence was monitored using the change in emission of Trp342 in the PDZ variants (excitation at 280 nm; emission at 330 ± 30 nm). The peptides were N-acetylated (Ontores Biotechnologies) and the concentration of the respective stock solution was determined with either absorbance, quantitative amino acid analysis or direct detect (EMD Millipore). The rate constants of association, kon, and dissociation, koff, were determined in separate experiments. […] For each PDZ variant the kobs values were plotted versus the concentration of peptide and fitted to the general equation for a reversible bimolecular interaction[38][39] from which kon was derived. The koff was measured in a displacement experiment in which a pre-formed complex of PDZ variant (1 μM) and peptide (2 μM) was mixed with high concentrations of a dansylated RRRETQV-peptide (100, and 150 μM), which competes with the unlabelled peptide for binding to the PDZ. […] The kobs value at high peptide concentration is equal to the overall koff value, as described previously.

[2] = target: T2, pWT PDZ2 (pseudo wild type SAP97 PDZ2, I342W/C378A); assay: Stopped-flow binding kinetics, peptide with pWT PDZ2; conditions: for Kd: Kd = koff/kon, ± propagated standard error; for Kd / koff: pH 7.5, 10 °C; for kon: Trp342 fluorescence, 1 µM PDZ, peptide 2–40 µM, N-acetylated peptide, 50 mM potassium phosphate pH 7.5, 10 °C; for kon / koff: value ± standard error; for koff: displacement of pre-formed complex (1 µM PDZ, 2 µM peptide) with 100 and 150 µM dansylated RRRETQV peptide
Experimental: as §1, §2, §3

[3] = target: T3, pWT PDZ2 L391F; assay: Stopped-flow binding kinetics, peptide with pWT PDZ2 L391F; conditions: for Kd: Kd = koff/kon, ± propagated standard error; for Kd / koff: pH 7.5, 10 °C; for kon: Trp342 fluorescence, 1 µM PDZ, peptide 2–40 µM, N-acetylated peptide, 50 mM potassium phosphate pH 7.5, 10 °C; for kon / koff: value ± standard error; for koff: displacement of pre-formed complex (1 µM PDZ, 2 µM peptide) with 100 and 150 µM dansylated RRRETQV peptide
Experimental: as §1, §2, §3

[4] = target: T4, pWT PDZ2 K392M; assay: Stopped-flow binding kinetics, peptide with pWT PDZ2 K392M; conditions: for Kd: Kd = koff/kon, ± propagated standard error; for Kd / koff: pH 7.5, 10 °C; for kon: Trp342 fluorescence, 1 µM PDZ, peptide 2–40 µM, N-acetylated peptide, 50 mM potassium phosphate pH 7.5, 10 °C, value ± standard error (EKKHTLL: mean of two experiments); for koff: displacement of pre-formed complex (1 µM PDZ, 2 µM peptide) with 100 and 150 µM dansylated RRRETQV peptide, value ± standard error
Experimental: as §1, §2, §3

[5] = target: pWT PDZ2 K392M (human) (UniProt Q12959); assay: stopped-flow spectroscopy
[6] = target: Pseudo wild type SAP97 PDZ2 (second PDZ domain of synapse associated protein 97, I342W/C378A) (human) (UniProt Q12959); assay: stopped-flow spectroscopy
[7] = target: pWT PDZ2 L391F (human) (UniProt Q12959); assay: stopped-flow spectroscopy
[8] = target: PDZØ9, engineered variant (L391F/K392M) of pWT SAP97 PDZ2 (human) (UniProt Q12959); assay: stopped-flow spectroscopy

| Molecule | Kd [1] | koff [1] | kon [1] | Kd [2] | kon [2] | koff [2] | Kd [3] | kon [3] | koff [3] | Kd [4] | kon [4] | koff [4] | also measured |
| --- | --- | --- | --- | --- | --- | --- | --- | --- | --- | --- | --- | --- | --- |
| Ac-PGKETQL [PGKETQL] | 240 ± 4 nM | 3.9 ± 0.03 s⁻¹ | 1.6e+07 ± 200000 M⁻¹ s⁻¹ | 2800 ± 100 nM | 1.8e+07 ± 600000 M⁻¹ s⁻¹ | 51 ± 1.8 s⁻¹ | 250 ± 4 nM | 2e+07 ± 300000 M⁻¹ s⁻¹ | 5 ± 0.02 s⁻¹ | 2700 ± 200 nM | 1.8e+07 ± 600000 M⁻¹ s⁻¹ | 48 ± 2.3 s⁻¹ |  |
| Ac-SARSTDV [SARSTDV] | 260 ± 5 nM | 3.4 ± 0.06 s⁻¹ | 1.3e+07 ± 100000 M⁻¹ s⁻¹ | 1600 ± 30 nM | 1.6e+07 ± 200000 M⁻¹ s⁻¹ | 26 ± 0.3 s⁻¹ | 220 ± 3 nM | 1.8e+07 ± 100000 M⁻¹ s⁻¹ | 4 ± 0.05 s⁻¹ | 2100 ± 30 nM | 1.2e+07 ± 100000 M⁻¹ s⁻¹ | 25 ± 0.3 s⁻¹ |  |
| Ac-EKKHTLL [EKKHTLL] | 560 ± 5 nM | 7.9 ± 0.04 s⁻¹ | 1.4e+07 ± 100000 M⁻¹ s⁻¹ | 9300 ± 400 nM | 1.2e+07 ± 500000 M⁻¹ s⁻¹ | 112 ± 1.2 s⁻¹ | 650 ± 7 nM | 1.1e+07 ± 80000 M⁻¹ s⁻¹ | 7.1 ± 0.05 s⁻¹ | 14000 ± 2000 nM | 1.1e+07 ± 1.7e+06 M⁻¹ s⁻¹ | 157 ± 2 s⁻¹ |  |
| Ac-NSKETVV [NSKETVV] | 160 ± 2 nM | 1.6 ± 0.01 s⁻¹ | 1e+07 ± 70000 M⁻¹ s⁻¹ | 660 ± 7 nM | 1.3e+07 ± 100000 M⁻¹ s⁻¹ | 8.6 ± 0.07 s⁻¹ | 150 ± 1 nM | 1.3e+07 ± 90000 M⁻¹ s⁻¹ | 1.9 ± 0.01 s⁻¹ | 790 ± 10 nM | 9.7e+06 ± 70000 M⁻¹ s⁻¹ | 7.7 ± 0.18 s⁻¹ |  |
| Ac-VSKETPL [VSKETPL] | 750 ± 20 nM | 6.3 ± 0.2 s⁻¹ | 8.4e+06 ± 60000 M⁻¹ s⁻¹ | 3900 ± 200 nM | 4e+07 ± 2.2e+06 M⁻¹ s⁻¹ | 154 ± 3 s⁻¹ | 800 ± 20 nM | 1.1e+07 ± 100000 M⁻¹ s⁻¹ | 8.8 ± 0.2 s⁻¹ | 6300 ± 600 nM | 2.4e+07 ± 2.2e+06 M⁻¹ s⁻¹ | 150 ± 3 s⁻¹ |  |
| Ac-YRRESAI [YRRESAI] | 770 ± 10 nM | 17 ± 0.2 s⁻¹ | 2.2e+07 ± 200000 M⁻¹ s⁻¹ | 4600 ± 100 nM | 1.9e+07 ± 500000 M⁻¹ s⁻¹ | 87 ± 0.5 s⁻¹ | 790 ± 10 nM | 1.9e+07 ± 100000 M⁻¹ s⁻¹ | 15 ± 0.2 s⁻¹ | 4200 ± 100 nM | 2.5e+07 ± 700000 M⁻¹ s⁻¹ | 105 ± 0.5 s⁻¹ |  |
| Ac-TSRETDL [TSRETDL] | 170 ± 4 nM | 2.6 ± 0.04 s⁻¹ | 1.5e+07 ± 200000 M⁻¹ s⁻¹ | 2200 ± 70 nM | 3.3e+07 ± 1.1e+06 M⁻¹ s⁻¹ | 71 ± 0.5 s⁻¹ | 210 ± 6 nM | 1.8e+07 ± 400000 M⁻¹ s⁻¹ | 3.8 ± 0.06 s⁻¹ | 4100 ± 200 nM | 1.5e+07 ± 500000 M⁻¹ s⁻¹ | 62 ± 0.9 s⁻¹ |  |
| dansyl-labeled peptide: dansyl-labeled peptide corresponding to the C-terminal six residues of HPV18 E6, competitor in displacement experiments (RRRETQV; also: dansyl label, position not given here) [reference compound] |  |  |  |  |  |  |  |  |  |  |  |  | kobs, binding of free PDZØ9 to the dansyl-labeled peptide ([1]; 150 μM dansyl-labeled peptide, initial part of displacement trace): ~1000 s⁻¹ |
| Ac-RRRETQV [RRRETQV, reference compound] | 60 ± 2 nM | 0.6 ± 0.015 s⁻¹ | 9.8e+06 ± 50000 M⁻¹ s⁻¹ | 400 ± 5 nM | 8e+06 ± 40000 M⁻¹ s⁻¹ | 3.2 ± 0.04 s⁻¹ | 70 ± 1 nM | 8.7e+06 ± 40000 M⁻¹ s⁻¹ | 0.6 ± 0.01 s⁻¹ | 370 ± 3 nM | 9e+06 ± 40000 M⁻¹ s⁻¹ | 3.3 ± 0.02 s⁻¹ |  |
| Ac-RSISTDV [RSISTDV] | 250 ± 5 nM | 4.3 ± 0.06 s⁻¹ | 1.7e+07 ± 200000 M⁻¹ s⁻¹ | 1200 ± 30 nM | 2.1e+07 ± 500000 M⁻¹ s⁻¹ | 26 ± 0.3 s⁻¹ | 180 ± 3 nM | 2.4e+07 ± 300000 M⁻¹ s⁻¹ | 4.3 ± 0.05 s⁻¹ | 1800 ± 40 nM | 1.7e+07 ± 300000 M⁻¹ s⁻¹ | 31 ± 0.3 s⁻¹ |  |
| Ac-KRKETLV [KRKETLV] | 80 ± 1 nM | 0.6 ± 0.005 s⁻¹ | 8e+06 ± 60000 M⁻¹ s⁻¹ | 470 ± 6 nM | 6.4e+06 ± 60000 M⁻¹ s⁻¹ | 3 ± 0.03 s⁻¹ | 80 ± 1 nM | 7.4e+06 ± 60000 M⁻¹ s⁻¹ | 0.6 ± 0.005 s⁻¹ | 470 ± 2 nM | 7.2e+06 ± 20000 M⁻¹ s⁻¹ | 3.4 ± 0.01 s⁻¹ |  |
| Ac-KRKETLV [KRKETLV peptide (C-terminus of neuroepithelial cell-transforming gene 1 protein, Net1)] |  |  |  |  |  |  |  |  |  |  |  |  | Kd [5]: 470 nM; koff [5]: 3.4 s⁻¹; kon [5]: 7.2e+06 M⁻¹ s⁻¹; Kd [6]: 470 nM; koff [6]: 3 s⁻¹; kon [6]: 6.4e+06 M⁻¹ s⁻¹; Kd [7]: 80 nM; koff [7]: 0.6 s⁻¹; kon [7]: 7.4e+06 M⁻¹ s⁻¹; Kd [8]: 80 nM; koff [8]: 0.6 s⁻¹; kon [8]: 8e+06 M⁻¹ s⁻¹ |
| Ac-RSISTDV [RSISTDV peptide (C-terminus of protein FAM163B)] |  |  |  |  |  |  |  |  |  |  |  |  | koff [5]: 31 s⁻¹; kon [5]: 1.7e+07 M⁻¹ s⁻¹; koff [6]: 26 s⁻¹; kon [6]: 2.1e+07 M⁻¹ s⁻¹; koff [7]: 4.3 s⁻¹; kon [7]: 2.4e+07 M⁻¹ s⁻¹; koff [8]: 4.3 s⁻¹; kon [8]: 1.7e+07 M⁻¹ s⁻¹ |
